pEC50, pKi: −log10 of the molar value.

In one assay the target is Cannabinoid receptor 2 (Homo sapiens, UniProt P34972). In words: CB Receptor Radioligand Binding Assay (Ki). How it is done:
IC50 values for test compounds were determined from nonlinear regression analysis of data collected from ligand displacement experiments. The inhibition constant (Ki) was calculated from IC50 value by the Cheng and Prusoff equation.

Assay [1] has as its target Transient receptor potential cation channel subfamily V member 1 (Homo sapiens, UniProt Q8NER1). In words: TRPV1 Channel Activity Assay. The procedure:
The effect of the substances on Ca2+ influx was determined by using HEK-293 cells stably overexpressing recombinant human TRPV1 cDNA. The cells were loaded with Fluo-4, a selective intracellular fluorescent probe for Ca2+. Experiments were carried out by measuring cell fluorescence before and after the addition of the test compounds at various concentrations. Agonist activity was determined in comparison to the maximum Ca2+ influx due to the application of 4 uM ionomycin. EC50 values were determined as the concentration of test substances required to produce half-maximal increases in [Ca2+]i. All determinations were at least performed in triplicate. Curve fitting (sigmoidal dose-response variable slope) and parameter estimation were performed with GraphPad Prism (GraphPad Software Inc., San Diego, CA).

Chain of Cannabinoid receptor 2 (P34972 whole entry): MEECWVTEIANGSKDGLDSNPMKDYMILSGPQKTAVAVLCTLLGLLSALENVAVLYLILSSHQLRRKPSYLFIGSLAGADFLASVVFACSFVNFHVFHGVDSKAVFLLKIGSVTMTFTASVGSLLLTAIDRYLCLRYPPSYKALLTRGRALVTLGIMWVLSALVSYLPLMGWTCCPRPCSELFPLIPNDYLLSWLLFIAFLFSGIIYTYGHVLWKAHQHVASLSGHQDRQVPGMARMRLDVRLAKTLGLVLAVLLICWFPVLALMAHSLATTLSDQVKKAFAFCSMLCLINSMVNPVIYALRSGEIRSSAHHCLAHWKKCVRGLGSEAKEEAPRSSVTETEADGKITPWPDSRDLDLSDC
Chain of Transient receptor potential cation channel subfamily V member 1 (Q8NER1 whole entry): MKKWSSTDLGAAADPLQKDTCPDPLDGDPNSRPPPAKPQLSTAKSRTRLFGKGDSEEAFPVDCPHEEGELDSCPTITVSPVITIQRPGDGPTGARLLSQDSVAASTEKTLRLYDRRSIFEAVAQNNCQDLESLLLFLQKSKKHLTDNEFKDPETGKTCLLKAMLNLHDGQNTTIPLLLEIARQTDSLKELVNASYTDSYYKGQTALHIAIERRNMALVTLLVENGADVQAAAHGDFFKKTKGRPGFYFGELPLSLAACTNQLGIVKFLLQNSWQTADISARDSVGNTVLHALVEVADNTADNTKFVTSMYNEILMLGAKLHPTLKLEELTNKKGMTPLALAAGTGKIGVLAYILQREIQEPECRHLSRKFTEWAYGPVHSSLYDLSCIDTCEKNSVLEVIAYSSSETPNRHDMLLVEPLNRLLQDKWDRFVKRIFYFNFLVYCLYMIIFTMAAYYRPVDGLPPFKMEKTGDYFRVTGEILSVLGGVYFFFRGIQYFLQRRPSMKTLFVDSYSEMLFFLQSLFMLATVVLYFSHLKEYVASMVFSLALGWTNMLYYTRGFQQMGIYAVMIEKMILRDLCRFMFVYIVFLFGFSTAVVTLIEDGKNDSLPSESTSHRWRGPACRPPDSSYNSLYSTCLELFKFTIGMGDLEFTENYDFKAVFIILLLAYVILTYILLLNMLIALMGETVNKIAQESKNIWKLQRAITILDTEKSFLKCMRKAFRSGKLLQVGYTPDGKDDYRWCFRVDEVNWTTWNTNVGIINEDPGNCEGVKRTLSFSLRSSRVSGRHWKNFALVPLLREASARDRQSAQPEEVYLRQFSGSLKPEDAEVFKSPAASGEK

As usually defined, the pKi is the negative decadic logarithm of the Ki, by convention in mol/L. A higher pKi goes with a low Ki. As a reminder, the pEC50 is −log10 of the EC50, conventionally taken in molar units. A high value points to a small EC50. At Cannabinoid receptor 2, `CCCCCCCC/C=C\CCCCCCCC(=O)N[C@H]1C[C@@H]1O` [cyclopropanolamide, 11b] showed a pKi of 5.62. In assay [1], this molecule gave a pEC50 of 7.72.

In turn, `CCCCCCCC/C=C\CCCCCCCC(=O)N[C@H]1C[C@H]1O` [cyclopropanolamide, 14b] showed a pKi at Cannabinoid receptor 2 of 5.79. The pEC50 in assay [1] is 6.74.

For the origin of these results see BindingDB's records for doi:10.1021/jm900130m (Universita Del Piemonte Orientale, 2009).
